The values that follow come from patent US6624202B2, “Inhibitors of copper-containing amine oxidases” (priority 2000, dated 2003).

Where a name gives a salt, the structure may show the parent alone. Read-outs that look alike come from different tables or passages of the source.

Series [1] has as its target T1, Recombinant human VAP-1 SSAO (Homo sapiens, UniProt Q16853).
T1 sequence (Q16853 1-763): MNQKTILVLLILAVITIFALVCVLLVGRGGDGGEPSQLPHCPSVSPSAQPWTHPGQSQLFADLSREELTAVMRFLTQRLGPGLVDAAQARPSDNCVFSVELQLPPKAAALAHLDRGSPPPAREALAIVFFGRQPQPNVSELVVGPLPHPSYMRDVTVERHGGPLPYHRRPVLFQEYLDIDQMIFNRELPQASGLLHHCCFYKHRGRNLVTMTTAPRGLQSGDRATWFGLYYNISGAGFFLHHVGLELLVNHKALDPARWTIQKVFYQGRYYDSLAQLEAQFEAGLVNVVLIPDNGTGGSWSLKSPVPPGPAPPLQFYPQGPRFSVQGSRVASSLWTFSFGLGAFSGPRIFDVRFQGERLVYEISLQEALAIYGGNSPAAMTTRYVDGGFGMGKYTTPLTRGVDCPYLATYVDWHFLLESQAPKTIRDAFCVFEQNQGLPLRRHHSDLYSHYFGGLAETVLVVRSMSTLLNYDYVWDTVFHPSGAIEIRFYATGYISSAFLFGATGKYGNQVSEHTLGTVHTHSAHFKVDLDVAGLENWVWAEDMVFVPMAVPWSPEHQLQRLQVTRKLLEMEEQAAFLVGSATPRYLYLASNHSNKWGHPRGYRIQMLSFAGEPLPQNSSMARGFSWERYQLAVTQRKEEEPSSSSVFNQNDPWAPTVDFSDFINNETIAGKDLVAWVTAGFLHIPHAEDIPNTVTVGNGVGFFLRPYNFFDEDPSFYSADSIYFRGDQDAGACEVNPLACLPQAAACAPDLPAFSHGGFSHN
The series is described as follows: In vitro inhibition of VAP-1 SSAO activity (coupled colourimetric method). The settings on record: for IC50: 1 mM benzylamine, 1 h at 37° C. In kind it is biochemical. As to the method: VAP-1 SSAO activity was measured using the coupled colourimetric method essentially as described for monoamine oxidase and related enzymes (Holt, A., et al., Anal. Biochem. 244:384-392 (1997)). Recombinant human VAP-1 SSAO expressed in Chinese Hamster Ovary (CHO) cells was used as a source of VAP-1 SSAO for activity measurements. […] These cells and their culture have previously been described (Smith, D. J., et al., J. Exp. Med. 188:17-27 (1998)). A cell lysate was prepared by suspending approximately 3.6×10^8 cells in 25 ml lysis buffer (150 mM NaCl, 10 mM Tris-Base pH 7.2, 1.5 mM MgCl2, 1% NP40) and incubating at 4° C. overnight on a rotating table. The lysate was clarified by centrifugation at 18000 g for 5 min at room temperature and the supernatant used directly in the assay. The VAP-1 SSAO assay was performed in 96 well microtitre plates as follows. To each well was added a predetermined amount of inhibitor if required. […] Controls lacked inhibitor. The inhibitor was in a total volume of 20 μl in water. The following reagents were then added. 0.2 M potassium phosphate buffer pH 7.6 to a total reaction volume of 200 μl, 45 μl of freshly made chromogenic solution containing 1 mM 2,4-dichlorophenol, 500 μM 4-aminoantipyrine and 4 U/ml horseradish peroxidase and an amount of CHO cell lysate containing VAP-1 SSAO that caused a change of 0.6 A490 per h. […] The plates were incubated for 30 min at 37° C. and the background absorbance measured at 490 nm using a Wallac Victor II multilabel counter. To initiate the enzyme reaction 20 μl 10 mM benzylamine (final concentration=1 mM) was added and the plate incubated for 1 h at 37° C. The increase in absorbance, reflecting VAP-1 SSAO activity, was measured at 490 nm. Inhibition was presented as percent inhibition compared to control after correcting for background absorbance and IC50 values calculated using GraphPad Prism.

For a further series, the system named is Total rat MAO. Description: Total rat MAO activity (rat liver mitochondrial preparation, colourimetric). In kind it is biochemical. To be noted: rat liver mitochondria; 0.5 mM tyramine; 1 h at 37° C.; read-out: Total MAO inhibitory activity IC50. The procedure:
Rat MAO was prepared from rat liver by rinsing the 1 g liver sample several times in 14 ml KCl-EDTA-solution to remove all blood. Then 1 g liver sample was homogenised in 4 ml ice-cold potassium phosphate buffer (0.1 M, pH 7.4) with an Ultra-Turrax homogeniser (setting 11 000 rpm, 4×10 s). After centrifugation at 500 g for 10 min at 4° C. the supernatant was carefully withdrawn and was centrifuged at 12 300 g for 15 min at 4° C. The supernatant was discharged and sedimented mitochondria were resuspended in 4 ml fresh phosphate buffer and centrifuged as previously. The mitochondria were suspended in 4 ml phosphate buffer and homogenized with an Ultra-Turrax homogeniser (setting 11 000 rpm, 2×10 s). Mitochondrial preparate was aliquoted and stored at −70° C. Total MAO activity was measured in a similar way as for VAP-1 SSAO except that 2,4-dichlorophenol was replaced by 1 mM vanillic acid. To each well was added a predetermined amount of inhibitor if required. The amount of inhibitor varied in each assay but was generally at a final concentration of between 10 nM and 800 μM. Controls lacked inhibitor. The inhibitor was in a total volume of 20 μl in water. The following reagents were then added. 0.2 M potassium phosphate buffer pH 7.6 for a total reaction volume of 300 μl, 50 μl of fleshly made chromogenic solution (as above) and 50 μl of MAO preparation. The plates were incubated for 30 min at 37° C. and the background absorbance measured at 490 nm using a Wallac Victor II multilabel counter. To initiate the enzyme reaction 20 μl of 5 mM tyramine (final concentration 0.5 mM) was added and the plate incubated for 1 h at 37° C. The increase in absorbance, reflecting MAO activity, was measured at […]. Inhibition was presented as percent inhibition compared to control after correcting for background absorbance and IC50 values calculated using GraphPad Prism. Clorgyline and pargyline (inhibitors of MAO-A and -B respectively) at 0.5 μM were added to some wells as positive controls for MAO inhibition.

Setting [2] is: VAP-1 SSAO inhibitory activity IC50, lysate of CHO cells expressing recombinant human VAP-1 SSAO.
The mark [3] stands for this setting: ratio of total rat MAO IC50 to human VAP-1 SSAO IC50.
Where [4] appears, read: lysate of CHO cells expressing recombinant human VAP-1 SSAO, read-out: VAP-1 SSAO inhibitory activity IC50.

Take `C[C@@H]([C@H](O)c1ccccc1)N(C)N` (as salt: maleate) [Compound 1, (1R,2S)-2-(1-Methylhydrazino)-1-phenyl-1-propanol hydrogenmaleate]: the melting point was 111 to 113 °C.
Turning to `CC(C(O)c1ccccc1)N(C)N` (racemic) [Compound 11], the IC50 stood at 170 nM in series [1] (setting [2]) and 16 µM with Total rat MAO. Besides, in series [1] (setting [3]), the “Selectivity for VAP-1 SSAO over MAO” value is on record as 94.
As for `CN(N)CC(O)c1ccc(Cl)cc1` (racemic) [Compound 30], in series [1], the “Selectivity for VAP-1 SSAO over MAO” value was found to be 68. In addition, the results for the half-maximal inhibitory concentration (IC50) (in series [1] (setting [4]); in the series on Total rat MAO) were 310 nM and 21 µM, respectively.
`COc1cccc(C(O)CNN)c1` (racemic) [Compound 33]: the IC50 in series [1] (setting [4]) worked out at 52 nM; in the series on Total rat MAO it was 9.1 µM. Also, in series [1] (setting [3]), the “Selectivity for VAP-1 SSAO over MAO” value is given as 175.
Consider `COc1cccc(C(O)CN(C)N)c1` (racemic) [Compound 34], for which, in series [1], the “Selectivity for VAP-1 SSAO over MAO” value was found to be 157. Also, the results for the half-inhibitory concentration (IC50) (in series [1] (setting [4]); with Total rat MAO) were 280 nM and 44 µM, respectively.
In the case of `NN(Cc1ccccc1)[C@@H]1CCCC[C@H]1O` (racemic) [Compound 42], the IC50 in series [1] (setting [4]) is 3700 nM; in the series with Total rat MAO it was 106 µM. For the same molecule, in series [1] (setting [3]), the “Selectivity for VAP-1 SSAO over MAO” value worked out at 29.
`C[C@H](C(O)c1ccccc1)N(C)N` (single isomer, unassigned) [Compound 48] had a melting point of 112 to 114 °C. Moreover, in series [1] (setting [2]), the half-maximal inhibitory concentration (IC50) is 280 nM. In addition, the “Selectivity for VAP-1 SSAO over MAO” value in series [1] (setting [3]) is recorded as 110.
`NNCC(O)c1ccccc1` (single isomer, unassigned) [Compound 49] registered a melting point of 99 to 104 °C. For the same molecule, in series [1] (setting [4]), the half-inhibitory concentration (IC50) is 140 nM. The “Selectivity for VAP-1 SSAO over MAO” value in series [1] (setting [3]) worked out at 70.
`NNCC(O)c1ccccc1` (single isomer, unassigned) [Compound 50] displayed a melting point of 98 to 103 °C. The IC50 in series [1] (setting [4]) stood at 35 nM. Moreover, the “Selectivity for VAP-1 SSAO over MAO” value in series [1] (setting [3]) was 283.

The melting point is the temperature of the solid-liquid transition. By IC50 is commonly meant the concentration that inhibits the measured activity by half.
